Measured values as given in patent publication US20160135455A1, “SAFENED HERBICIDAL COMPOSITIONS COMPRISING PYRIDINE CARBOXYLIC ACIDS” (Dow AgroSciences LLC, priority 2014, published 2016).
Where two headings read alike, the source gives them in different places.

Experiments:
Format in all cases: in vivo
[1] = tested on: wheat (TRZAS), Triticum aestivum (spring wheat); assay: Postemergence greenhouse trial, crop injury (phytotoxicity/safening) on wheat; details: applied alone at 35 g/ha, scored 20-22 d, 0 = no injury, 100 = complete kill
Description: (§1) Seeds of the desired test plant species were planted in Sun Gro MetroMix® 306 planting mixture, which typically has a pH of 6.0 to 6.8 and an organic matter content of about 30 percent, in plastic pots with a surface area of 103.2 square centimeters (cm^2). When required to ensure good germination and healthy plants, a fungicide treatment and/or other chemical or physical treatment was applied. The plants were grown for 7-36 days (d) in a greenhouse with an approximate 14-hour (h) photoperiod which was maintained at about 23° C. during the day and 22° C. during the night. Nutrients and water were added on a regular basis and supplemental lighting was provided with overhead metal halide 1000-Watt lamps as necessary. The plants were employed for testing when they reached the second or third true leaf stage.
(§2) Weighed amounts of technical material were dissolved in a volume of 97:3 volume per volume (v/v) acetone/dimethyl sulfoxide (DMSO) to stock solutions. […] The concentrated stock solutions were diluted with an aqueous mixture of 1.5% v/v of Agri-dex crop oil concentrate to provide the appropriate application rates. Compound requirements are based upon a 12 milliliter (mL) application volume at a rate of 187 liters per hectare (L/ha). Stocks solutions of the safeners were prepared following the same procedure. Spray solutions of the safeners and experimental compound mixtures were prepared by adding the stock solutions to the appropriate amount of dilution solution to form a 12 mL spray solution in two-way combinations. Formulated compounds were applied to the plant material with an overhead Mandel track sprayer equipped with 8002E nozzles calibrated to deliver 187 L/ha over an application area of 0.503 square meters (m^2) at a spray height of 18 inches (43 centimeters (cm)) above average plant canopy. Control plants were sprayed in the same manner with the solvent blank. All herbicide application (component a) rates are in g ae/ha and all safener (component b) rates are in g ai/ha.
(§3) The treated plants and control plants were placed in a greenhouse as described above and watered by sub-irrigation to prevent wash-off of the test compounds. After 20-22 d, the condition of the test plants as compared with that of the control plants was determined visually and scored on a scale of 0 to 100 percent where 0 corresponds to no injury and 100 corresponds to complete kill. The condition of the test plants was compared with that of the control plants as determined visually and scored on a scale of 0 to 100 percent, where 0 corresponds to no injury and 100 corresponds to complete kill. Colby's equation was used to determine the herbicidal effects expected from the mixtures.
(§4) The safener fenchlorazole-ethyl was combined with compound 1, compound 2, compound 3, compound 4, compound 5, and compound 6, and applied to wheat (TRZAS), and the phytotoxicity of the herbicidal compositions was measured. In addition, the efficacy of the herbicidal composition on velvetleaf (ABUTH, Abutilon theophrasti), pigweed (AMARE, Amaranthus retroflexus), winter rape (BRSNW, Brassica napus), lambsquarters (CHEAL, Chenopodium album), thistle (CIRAR, Cirsium arvense), nutsedge (CYPES, Cyperus esculentus), poinsettia (EPHHL, Euphorbia heterophylla), wild buckwheat (POLCO, Polygonum convolvulus), giant foxtail (SETFA, Setaria faberi), sorghum (SORVU, Sorghum bicolor), chickweed (STEME, Stellaria media), and wild pansy (VIOTR, Viola tricolor) was evaluated.
The safener isoxadifen-ethyl was combined with compound 1, compound 2, compound 3, compound 4, compound 5, and compound 6, and applied to wheat (TRZAS), and the phytotoxicity of the herbicidal compositions was measured. […]

[2] = tested on: velvetleaf (ABUTH, Abutilon theophrasti); assay: Postemergence greenhouse trial, herbicidal efficacy on velvetleaf; details: post-emergence, 528 h
Description: as §1, §2, §3

[3] = tested on: pigweed (AMARE, Amaranthus retroflexus); assay: Postemergence greenhouse trial, herbicidal efficacy on pigweed; details: post-emergence, 528 h
Description: as §1, §2, §3

[4] = tested on: winter rape (BRSNW, Brassica napus); assay: Postemergence greenhouse trial, herbicidal efficacy on winter rape; details: post-emergence, 528 h
Description: as §1, §2, §3

[5] = tested on: lambsquarters (CHEAL, Chenopodium album); assay: Postemergence greenhouse trial, herbicidal efficacy on lambsquarters; details: post-emergence, 528 h
Description: as §1, §2, §3

[6] = tested on: thistle (CIRAR, Cirsium arvense); assay: Postemergence greenhouse trial, herbicidal efficacy on thistle; details: post-emergence, 528 h
Description: as §1, §2, §3

[7] = tested on: poinsettia (EPHHL, Euphorbia heterophylla); assay: Postemergence greenhouse trial, herbicidal efficacy on poinsettia; details: Euphorbia heterophylla, post-emergence, 528 h, read-out: % visual injury, Obs, EPHHL
Description: as §1, §2, §3

[8] = tested on: wild buckwheat (POLCO, Polygonum convolvulus); assay: Postemergence greenhouse trial, herbicidal efficacy on wild buckwheat; details: Fallopia convolvulus, post-emergence, 528 h
Description: as §1, §2, §3

[9] = tested on: giant foxtail (SETFA, Setaria faberi); assay: Postemergence greenhouse trial, herbicidal efficacy on giant foxtail; details: applied alone at 35 g/ha; for % visual injury, Obs, SETFA: rated after 20-22 d; for Obs, % visual injury, SETFA: scored 20-22 d
Description: as §1, §2, §3

[10] = tested on: chickweed (STEME, Stellaria media); assay: Postemergence greenhouse trial, herbicidal efficacy on chickweed; details: post-emergence, 528 h
Description: as §1, §2, §3

[11] = tested on: wild pansy (VIOTR, Viola tricolor); assay: Postemergence greenhouse trial, herbicidal efficacy on wild pansy; details: for pest or weed control at 35 g/ha: Viola tricolor, post-emergence, 528 h, read-out: Obs, % visual injury, VIOTR; for % visual injury, Obs, VIOTR: rated after 20-22 d
Description: as §1, §2, §3

[12] = tested on: corn/maize (ZEAMX), Zea mays; assay: Postemergence greenhouse trial, crop injury (phytotoxicity/safening) on corn/maize; details: applied alone at 35 g/ha, rated after 20-22 d
Description: as §1
as §2, with “All herbicide application (component a) rates are in g ae/ha and all safener (component b) rates are in g ai/ha.” left out
as §3, with “Colby's equation was used to determine the herbicidal effects expected from the mixtures.” left out
as §4, with “compound” for “compound 3, compound 4, compound”, “corn/maize (ZEAMX)” for “wheat (TRZAS),”, “bicolor), and” for “bicolor),”, “media)” for “media), and wild pansy (VIOTR, Viola tricolor)”
The safener mefenpyr-diethyl was combined with compound 1, compound 2, and compound 5, and applied to corn/maize (ZEAMX) and the phytotoxicity of the herbicidal compositions were measured. […]

[13] = tested on: sorghum (SORVU, Sorghum bicolor); assay: Postemergence greenhouse trial, herbicidal efficacy on sorghum; details: applied alone at 35 g/ha, rated after 20-22 d
Description: as §1, §2, §3

[14] = applied alone at 35 g/ha, postemergence

Structure (SMILES): CCOC(=O)C1=NOC(c2ccccc2)(c2ccccc2)C1 [isoxadifen-ethyl, reference compound]
- Obs, % visual injury, TRZAS [1]: 0%
- pest or weed control at 35 g/ha ([2]; read-out: % visual injury, Obs, ABUTH): 0%
- pest or weed control at 35 g/ha ([2]; read-out: Obs, % visual injury, ABUTH): 0%
- pest or weed control at 35 g/ha ([3]; read-out: % visual injury, Obs, AMARE): 0%
- pest or weed control at 35 g/ha ([3]; read-out: Obs, % visual injury, AMARE): 0%
- plant injury at 35 g/ha ([4]; read-out: % visual injury, Obs, BRSNW): 0%
- plant injury at 35 g/ha ([4]; read-out: Obs, % visual injury, BRSNW): 0%
- pest or weed control at 35 g/ha ([5]; read-out: % visual injury, Obs, CHEAL): 0%
- pest or weed control at 35 g/ha ([5]; read-out: Obs, % visual injury, CHEAL): 0%
- pest or weed control at 35 g/ha ([6]; read-out: % visual injury, Obs, CIRAR): 0%
- pest or weed control at 35 g/ha ([6]; read-out: Obs, % visual injury, CIRAR): 0%
- pest or weed control at 35 g/ha [7]: 0%
- pest or weed control at 35 g/ha ([8]; read-out: % visual injury, Obs, POLCO): 0%
- pest or weed control at 35 g/ha ([8]; read-out: Obs, % visual injury, POLCO): 0%
- % visual injury, Obs, SETFA [9]: 0%
- Obs, % visual injury, SETFA [9]: 0%
- pest or weed control at 35 g/ha ([10]; read-out: % visual injury, Obs, STEME): 0%
- pest or weed control at 35 g/ha ([10]; read-out: Obs, % visual injury, STEME): 0%
- pest or weed control at 35 g/ha [11]: 0%
- % visual injury, Obs, VIOTR [11, 14]: 0%
- % visual injury, Obs, ZEAMX [12]: 0%

Structure (SMILES): COCC(=O)n1ccc2ccc(-c3nc(C(=O)OC)c(Cl)c(N)c3F)c(F)c21 [compound 6]
- Obs, % visual injury, TRZAS [1]: 35%
- pest or weed control at 35 g/ha ([2]; applied alone at 35 g/ha, postemergence, rated after 20-22 d, read-out: % visual injury, Obs, ABUTH): 80%
- pest or weed control at 35 g/ha ([2]; applied alone at 35 g/ha, postemergence, scored 20-22 d, read-out: Obs, % visual injury, ABUTH): 80%
- pest or weed control at 35 g/ha ([3]; applied alone at 35 g/ha, postemergence, rated after 20-22 d, read-out: % visual injury, Obs, AMARE): 100%
- pest or weed control at 35 g/ha ([3]; applied alone at 35 g/ha, postemergence, scored 20-22 d, read-out: Obs, % visual injury, AMARE): 100%
- plant injury at 35 g/ha ([4]; applied alone at 35 g/ha, postemergence, rated after 20-22 d, read-out: % visual injury, Obs, BRSNW): 75%
- plant injury at 35 g/ha ([4]; applied alone at 35 g/ha, postemergence, scored 20-22 d, read-out: Obs, % visual injury, BRSNW): 75%
- pest or weed control at 35 g/ha ([5]; applied alone at 35 g/ha, postemergence, rated after 20-22 d, read-out: % visual injury, Obs, CHEAL): 100%
- pest or weed control at 35 g/ha ([5]; applied alone at 35 g/ha, postemergence, scored 20-22 d, read-out: Obs, % visual injury, CHEAL): 100%
- pest or weed control at 35 g/ha ([6]; applied alone at 35 g/ha, postemergence, rated after 20-22 d, read-out: % visual injury, Obs, CIRAR): 75%
- pest or weed control at 35 g/ha ([6]; applied alone at 35 g/ha, postemergence, scored 20-22 d, read-out: Obs, % visual injury, CIRAR): 75%
- pest or weed control at 35 g/ha ([7]; applied alone at 35 g/ha, postemergence, rated after 20-22 d): 100%
- pest or weed control at 35 g/ha ([8]; applied alone at 35 g/ha, postemergence, rated after 20-22 d, read-out: % visual injury, Obs, POLCO): 97%
- pest or weed control at 35 g/ha ([8]; applied alone at 35 g/ha, postemergence, scored 20-22 d, read-out: Obs, % visual injury, POLCO): 97%
- % visual injury, Obs, SETFA [9]: 10%
- Obs, % visual injury, SETFA [9]: 10%
- % visual injury, Obs, SORVU [13]: 70%
- pest or weed control at 35 g/ha ([10]; applied alone at 35 g/ha, postemergence, rated after 20-22 d, read-out: % visual injury, Obs, STEME): 97%
- pest or weed control at 35 g/ha ([10]; applied alone at 35 g/ha, postemergence, scored 20-22 d, read-out: Obs, % visual injury, STEME): 97%
- pest or weed control at 35 g/ha ([11]; applied alone at 35 g/ha, postemergence, scored 20-22 d): 30%
- % visual injury, Obs, VIOTR [11, 14]: 30%
- % visual injury, Obs, ZEAMX [12]: 25%
